US11186566B2, “Modulator of cystic fibrosis transmembrane conductance regulator, pharmaceutical compositions, methods of treatment, and process for making the modulator” (Vertex Pharmaceuticals Incorporated, priority 2016, dated 2021)
pEC50: −log10 of the molar value. Read-outs that look alike come from different tables or passages of the source.

Columns and labels:
human PXR = human PXR (Homo sapiens (Human), UniProt O75469); test: PXR assay (PXR mediated CYP3A4 induction, DPX-2 cell line); assay type: cell-based; conditions: DPX-2 cells, 48 hours, 0.1 to 60 μM
Experimental: 5D. Experimental Protocol for PXR Assay
The propensity for PXR mediated CYP3A4 induction is assessed using the DPX-2 cell line in vitro. This cell line, which has been licensed from Puracyp Inc. was derived from HepG2 cells and has been stably transfected with genes encoding human PXR as well as a modified luciferase reporter linked to the CYP3A4 promoter region and related distal and proximal enhancers.
The assay is run in 384 well format and each test article is administered in 11 doses ranging from 0.1 to 60 μM. On day 1, DPX-2 cells which have previously been expanded in-house and cryopreserved are thawed and seeded in tissue culture plates. The following day, media is changed and cells are cultured in media containing test article, vehicle control or the positive control compound, the clinically validated CYP3A4 inducer rifampicin. Cells are cultured in the presence of test article for 48 hours and then cell viability is assessed using fluorescence based assay (Cell Titer-Fluor, Promega) with an EnVision Plate Reader (PerkinElmer). Subsequently, CYP3A4 transactivation, which is proportional to luciferase activity, is measured by reading luminescense using the Promega One-Glo reagent system using the same plate reader.
Data processing within the Genedata software package allows reporting of max fold induction compared to vehicle control, an EC50 value for CYP3A4 inducers and an 11 point-dose response curve.

Rat IV and PO PK studies = assay type: in vivo, male Sprague-Dawley rats; conditions: male, Sprague-Dawley, plasma; for bioavailability / AUC: oral; for bioavailability: read-out: Rat po % F; for clearance: intravenous, 3.0 mg/kg, read-out: Rat iv CL
Experimental: 5C. Experimental Protocol for Rat IV and PO PK Studies
[…] […] Analyses of plasma and dose preparations were performed using LC/MS/MS.
Plasma concentration-time profiles of the tested compound in Sprague-Dawley rats at scheduled (nominal) sampling times were analyzed by noncompartmental pharmacokinetic methods using PK function within Watson LIMS software, Version 7.4.2 (Thermo Scientific Inc, Waltham, Mass.). AUC values were calculated using the linear trapezoidal rule.

F508del-CFTR = F508del-CFTR (Homo sapiens (Human), UniProt P13569, DEL508-508); test: Membrane potential optical (fluorescent voltage sensing dye, FLIPR III) HTS assay for F508del-CFTR modulators; assay type: cell-based
From the text: Membrane Potential Optical Methods for Assaying Properties of F508del-CFTR Modulators
The assay utilizes fluorescent voltage sensing dyes to measure changes in membrane potential using a fluorescent plate reader (e.g., FLIPR III, Molecular Devices, Inc.) as a readout for increase in functional F508del in NIH 3T3 cells.
5A-A1. Identification of F508Del-CFTR Modulators
To identify modulators of F508del, a fluorescence based HTS assay format was developed. This HTS assay utilizes fluorescent voltage sensing dyes to measure changes in membrane potential on the FLIPR III as a measurement for increase in gating (conductance) of F508del NIH 3T3 cells.
(in mM) NaCl 160, KCl 4.5, CaCl2 2, MgCl2 1, HEPES 10, pH 7.4 with NaOH, Glucose 10.
Chloride salts in Bath Solution #1 (above) are substituted with gluconate salts.
NIH3T3 mouse fibroblasts stably expressing F508del are used for optical measurements of membrane potential. The cells are maintained at 37° C. in 5% CO2 and 90% humidity in Dulbecco's modified Eagle's medium supplemented with 2 mM glutamine, 10% fetal bovine serum, 1×NEAA, β-ME, 1×pen/strep, and 25 mM HEPES in 175 cm^2 culture flasks. For all optical assays, the cells were seeded at 12,000 cells/well in 384-well matrigel-coated plates and cultured for 18-24 hrs at 37° C. for the potentiator assay. For the correction assays, the cells are cultured at 37° C. with and without compounds for 18-24 hours.

[1] = F508del NIH 3T3 cells, assay 5A-A1, read-out: CFTRdF508 EC50
[2] = Table 9, read-out: CFTR dF508 EC50

Sequence of F508del-CFTR (P13569 other isoform, or with tags, fused parts or gaps del F508-F508): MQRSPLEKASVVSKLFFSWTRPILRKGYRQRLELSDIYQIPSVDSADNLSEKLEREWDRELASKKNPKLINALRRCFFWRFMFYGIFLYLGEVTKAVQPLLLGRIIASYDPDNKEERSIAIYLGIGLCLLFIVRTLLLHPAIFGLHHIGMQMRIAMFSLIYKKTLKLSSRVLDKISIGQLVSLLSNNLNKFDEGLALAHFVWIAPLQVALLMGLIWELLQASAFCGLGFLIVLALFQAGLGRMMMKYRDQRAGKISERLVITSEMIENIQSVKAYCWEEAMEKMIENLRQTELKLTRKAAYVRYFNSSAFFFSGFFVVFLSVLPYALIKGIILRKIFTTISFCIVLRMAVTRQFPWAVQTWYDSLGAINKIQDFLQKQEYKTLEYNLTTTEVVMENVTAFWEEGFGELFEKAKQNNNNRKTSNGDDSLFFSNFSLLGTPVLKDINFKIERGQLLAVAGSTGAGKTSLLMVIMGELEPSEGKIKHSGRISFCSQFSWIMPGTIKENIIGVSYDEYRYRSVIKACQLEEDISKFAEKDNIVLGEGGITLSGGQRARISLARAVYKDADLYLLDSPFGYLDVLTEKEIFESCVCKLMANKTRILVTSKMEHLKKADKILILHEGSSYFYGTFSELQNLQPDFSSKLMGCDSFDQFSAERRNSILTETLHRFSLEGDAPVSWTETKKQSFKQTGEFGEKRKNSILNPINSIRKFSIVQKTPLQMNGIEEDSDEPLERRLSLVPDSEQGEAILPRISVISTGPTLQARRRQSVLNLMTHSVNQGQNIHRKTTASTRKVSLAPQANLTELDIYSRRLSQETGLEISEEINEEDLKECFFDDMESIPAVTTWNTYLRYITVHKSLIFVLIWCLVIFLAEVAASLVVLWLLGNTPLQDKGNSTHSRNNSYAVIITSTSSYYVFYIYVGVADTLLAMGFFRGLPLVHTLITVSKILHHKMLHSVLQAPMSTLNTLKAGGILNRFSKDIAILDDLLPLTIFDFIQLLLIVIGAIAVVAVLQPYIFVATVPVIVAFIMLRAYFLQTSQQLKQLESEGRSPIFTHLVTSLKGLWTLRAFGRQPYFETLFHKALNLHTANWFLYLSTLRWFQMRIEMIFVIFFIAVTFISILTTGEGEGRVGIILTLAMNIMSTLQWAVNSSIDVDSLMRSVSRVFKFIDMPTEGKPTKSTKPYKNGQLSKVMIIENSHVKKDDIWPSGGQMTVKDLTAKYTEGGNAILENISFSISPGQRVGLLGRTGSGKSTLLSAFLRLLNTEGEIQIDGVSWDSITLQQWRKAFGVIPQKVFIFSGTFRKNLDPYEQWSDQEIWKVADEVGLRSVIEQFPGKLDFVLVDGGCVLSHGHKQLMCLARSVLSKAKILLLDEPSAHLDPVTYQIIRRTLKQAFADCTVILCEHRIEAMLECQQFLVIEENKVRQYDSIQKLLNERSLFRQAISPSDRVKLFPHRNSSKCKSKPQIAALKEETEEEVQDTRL
Sequence of human PXR (O75469 whole entry): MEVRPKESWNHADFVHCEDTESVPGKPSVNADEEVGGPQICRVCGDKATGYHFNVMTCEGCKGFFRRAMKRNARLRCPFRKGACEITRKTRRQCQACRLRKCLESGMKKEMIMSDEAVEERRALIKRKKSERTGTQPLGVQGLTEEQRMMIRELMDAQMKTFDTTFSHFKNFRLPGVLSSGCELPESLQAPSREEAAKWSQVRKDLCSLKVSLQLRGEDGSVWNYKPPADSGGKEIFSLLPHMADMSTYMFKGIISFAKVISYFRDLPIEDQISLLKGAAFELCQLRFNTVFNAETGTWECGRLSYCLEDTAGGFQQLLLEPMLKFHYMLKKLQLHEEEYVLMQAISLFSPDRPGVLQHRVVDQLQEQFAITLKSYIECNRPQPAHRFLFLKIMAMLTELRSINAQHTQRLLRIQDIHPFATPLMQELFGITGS

SMILES | PXR Max Induction (% of rifampicin) (human PXR) | bioavailability (Rat IV and PO PK studies; 3 mg/kg) | clearance (Rat IV and PO PK studies) | AUC (Rat IV and PO PK studies; 3 mg/kg) | pEC50 (F508del-CFTR; [1]) | pEC50 (F508del-CFTR; [2]) | pEC50 (F508del-CFTR; Table 7, Compound 1 and metabolites, read-out: CFTRdF508 EC50) | AUC (Rat IV and PO PK studies; 10 mg/kg for Compound A, read-out: Rat po AUC)
C[C@@H]1CN(c2nc(-n3ccc(OCC4(C(F)(F)F)CC4)n3)ccc2C(=O)NS(=O)(=O)c2ccc(C#N)cc2)C(C)(C)C1 [Comp. 27, N-(4-Cyanophenyl)sulfonyl-6-[3-[[1-(trifluoromethyl)cyclopropyl]methoxy]pyrazol-1-yl]-2-[(4S)-2,2,4-trimethylpyrrolidin-1-yl]pyridine-3-carboxamide] | 8 % of rifampicin | 100% | 3.6 mL/min/kg | 20300 ng·h/mL | 6.00 to 7.00 | 6.57 |  | 
C[C@@H]1CN(c2nc(-n3ccc(OCC4C(C)(C)C4(C)C)n3)ccc2C(=O)NS(=O)(=O)c2cccc(F)c2)C(C)(C)C1 [Compound 16, N-(3-Fluorophenyl)sulfonyl-6-[3-[(2,2,3,3-tetramethylcyclopropyl)methoxy]pyrazol-1-yl]-2-[(4S)-2,2,4-trimethylpyrrolidin-1-yl]pyridine-3-carboxamide] | 2 % of rifampicin | 12% | 24.8 mL/min/kg | 250 ng·h/mL | > 7.00 | 7.70 |  | 
C[C@@H]1CN(c2nc(-n3ccc(OCC4(C(F)(F)F)CC4)n3)ccc2C(=O)NS(=O)(=O)c2cccc(F)c2)C(C)(C)C1 [Comp. 51, N-(3-Fluorophenyl)sulfonyl-6-[3-[[1-(trifluoromethyl)cyclopropyl]methoxy]pyrazol-1-yl]-2-[(4S)-2,2,4-trimethylpyrrolidin-1-yl]pyridine-3-carboxamide] | 17 % of rifampicin | 100% | 5.2 mL/min/kg | 10500 ng·h/mL | > 7.00 | 7.30 |  | 
C[C@@H]1CN(c2nc(-n3ccc(OCC4(C(F)(F)F)CC4)n3)ccc2C(=O)NS(=O)(=O)c2ccccc2F)C(C)(C)C1 [Comp. 50, N-(2-fluorophenyl)sulfonyl-6-[3-[[1-(trifluoromethyl)cyclopropyl]methoxy]pyrazol-1-yl]-2-[(4S)-2,2,4-trimethylpyrrolidin-1-yl]pyridine-3-carboxamide] | 32 % of rifampicin |  |  |  | > 7.00 | 7.52 |  | 
C[C@@H]1CN(c2nc(-n3ccc(COCC4(C(F)(F)F)CC4)n3)ccc2C(=O)NS(=O)(=O)c2ccccc2)C(C)(C)C1 [Comp. 37, N-(Benzenesulfonyl)-6-[3-[[1-(trifluoromethyl)cyclopropyl]methoxymethyl]pyrazol-1-yl]-2-[(4S)-2,2,4-trimethylpyrrolidin-1-yl]pyridine-3-carboxamide] | 8 % of rifampicin |  |  |  | > 7.00 | 7.15 |  | 
C[C@@H]1CN(c2nc(-n3ccc(OCCC4(C(F)(F)F)CC4)n3)ccc2C(=O)NS(=O)(=O)c2ccc(O)cc2)C(C)(C)C1 [Compound 31, N-(4-Hydroxyphenyl)sulfonyl-6-[3-[2-[1-(trifluoromethyl)cyclopropyl]ethoxy]pyrazol-1-yl]-2-[(4S)-2,2,4-trimethylpyrrolidin-1-yl]pyridine-3-carboxamide] | 7 % of rifampicin |  |  |  | > 7.00 | 7.52 | 7.52 | 
C[C@@H]1CN(c2nc(-n3ccc(OCC4C(C)(C)C4(C)C)n3)ccc2C(=O)NS(=O)(=O)c2ccccc2)C(C)(C)C1 [Comp. 30, N-(Benzenesulfonyl)-6-[3-[(2,2,3,3-tetramethylcyclopropyl)methoxy]pyrazol-1-yl]-2-[(4S)-2,2,4-trimethylpyrrolidin-1-yl]pyridine-3-carboxamide] | 0 % of rifampicin | 26% | 6.1 mL/min/kg | 2300 ng·h/mL | > 7.00 | 7.05 |  | 
C[C@@H]1CN(c2nc(-n3ccc(OCC4C5(CC5)C45CC5)n3)ccc2C(=O)NS(=O)(=O)c2ccccc2)C(C)(C)C1 [Compound 64, N-(Benzenesulfonyl)-6-[3-(dispiro[2.0.2.1]heptan-7-ylmethoxy)pyrazol-1-yl]-2-[(4S)-2,2,4-trimethylpyrrolidin-1-yl]pyridine-3-carboxamide] | 4 % of rifampicin | 79% | 3.4 mL/min/kg | 9000 ng·h/mL | > 7.00 | 7.30 |  | 
COc1cccc(S(=O)(=O)NC(=O)c2ccc(-n3ccc(OCC4(C(F)(F)F)CC4)n3)nc2N2C[C@@H](C)CC2(C)C)c1 [Comp. 49, N-(3-methoxyphenyl)sulfonyl-6-[3-[[1-(trifluoromethyl)cyclopropyl]methoxy]pyrazol-1-yl]-2-[(4S)-2,2,4-trimethylpyrrolidin-1-yl]pyridine-3-carboxamide] | 19 % of rifampicin |  |  |  | > 7.00 | 7.70 |  | 
C[C@@H]1CN(c2nc(-n3ccc(OCC4(C(F)F)CC4)n3)ccc2C(=O)NS(=O)(=O)c2ccccc2)C(C)(C)C1 [Comp. 55, N-(Benzenesulfonyl)-6-[3-[[1-(difluoromethyl)cyclopropyl]methoxy]pyrazol-1-yl]-2-[(4S)-2,2,4-trimethylpyrrolidin-1-yl]pyridine-3-carboxamide] | 22 % of rifampicin |  |  |  | > 7.00 | 7.30 |  | 
COc1ccc(S(=O)(=O)NC(=O)c2ccc(-n3ccc(OCC4(C(F)(F)F)CC4)n3)nc2N2C[C@@H](C)CC2(C)C)c(C)c1 [Comp. 57, N-(4-Methoxy-2-methyl-phenyl)sulfonyl-6-[3-[[1-(trifluoromethyl)cyclopropyl]methoxy]pyrazol-1-yl]-2-[(4S)-2,2,4-trimethylpyrrolidin-1-yl]pyridine-3-carboxamide] | 2 % of rifampicin |  |  |  | > 7.00 | 7.10 |  | 
C[C@@H]1CN(c2nc(-n3ccc(OCC4C(C)(C)C4(C)C)n3)ccc2C(=O)NS(=O)(=O)c2ccc(O)cc2)C(C)(C)C1 [Comp. 33, N-(4-Hydroxyphenyl)sulfonyl-6-[3-[(2,2,3,3-tetramethylcyclopropyl)methoxy]pyrazol-1-yl]-2-[(4S)-2,2,4-trimethylpyrrolidin-1-yl]pyridine-3-carboxamide] | 0 % of rifampicin |  |  |  | > 7.00 | 7.10 |  | 
C[C@@H]1CN(c2nc(-n3ccc(OCC(C)(C)C)n3)ccc2C(=O)NS(=O)(=O)c2ccccc2)C(C)(C)C1 [Comp. B, reference compound] | 9 % of rifampicin |  | 29.2 mL/min/kg |  |  |  |  | 
C[C@@H]1CN(c2nc(-n3ccc(OCC4C[C@@H]5CC[C@@H]4C5)n3)ccc2C(=O)NS(=O)(=O)c2ccccc2)C(C)(C)C1 (stereo partly drawn) [Comp. 40, N-(Benzenesulfonyl)-6-[3-[[(1R,4R)-norbornan-2-yl]methoxy]pyrazol-1-yl]-2-[(4S)-2,2,4-trimethylpyrrolidin-1-yl]pyridine-3-carboxamide] | 2 % of rifampicin |  |  |  | > 7.00 | 7.10 |  | 
COc1ccc(S(=O)(=O)NC(=O)c2ccc(-n3ccc(OCC4(C(F)(F)F)CC4)n3)nc2N2C[C@@H](C)CC2(C)C)c(OC)c1 [Compound 13, N-(2,4-Dimethoxyphenyl)sulfonyl-6-[3-[[1-(trifluoromethyl)cyclopropyl]methoxy]pyrazol-1-yl]-2-[(4S)-2,2,4-trimethylpyrrolidin-1-yl]pyridine-3-carboxamide] | 2 % of rifampicin |  |  |  | 6.00 to 7.00 | 6.96 |  | 
C[C@@H]1CN(c2nc(-n3ccc(OCC(C)(C)C)n3)ccc2C(=O)NS(=O)(=O)c2cccnc2N)C(C)(C)C1 [Comp. A, reference compound] | 2 % of rifampicin | 28% | 17.8 mL/min/kg |  |  |  |  | 1200 ng·h/mL
